According to the supplement of paper PMC10307832:

The cell lines below were run with C1CSC2=C(C(=O)N1)SC3=C2C=C(C=C3)O [kb NB 142-70] + CCNC(=O)c1noc(-c2cc(C(C)C)c(O)cc2O)c1-c1ccc(CN2CCOCC2)cc1 [Luminespib] (partner 0.01 µM) (assay: relative viability (nuclei count vs DMSO), 5 days (fraction); higher = more cells survive). Details: first compound 0.1 µM.
How it was run: (§1)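 Lung cancer cell lines were pin-tool dosed in 1536-well plates on the day after seeding, with either a lone drug or a fixed anchor-drug dose plus five library-drug doses (not always all listed) in √10 steps. Nuclei were counted on 4× images after 5 days. Relative viability is the ratio of treated-well to vehicle-well nuclei counts, with each value a median of duplicate plates.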

Cell Line	relative viability
NCI-H2342	0.625
NCI-H1623	0.427
NCI-H727	0.226
NCI-H1650	0.204
NCI-H1993	1.03
SW 1573	0.21
NCI-H838	0.374
LCLC-103H	0.956
NCI-H520	0.255
NCI-H2126	0.797
EMC-BAC-2	1.25
NCI-H2085	0.383
NCI-H1666	0.898
NCI-H596	0.945
LK-2	0.206
NCI-H2087	0.183
SK-MES-1	0.84
H3255	0.881
COR-L23	0.665
COR-L 105	0.603
LOU-NH91	0.312
HCC-44	1.03
NCI-H522	1.18
NCI-H2009	1.15
NCI-H661	0.905
SK-LU-1	0.198
NCI-H2228	0.176
NCI-H1792	0.429
NCI-H2023	0.747
NCI-H1563	0.597

Same assay, conditions: first compound 1 µM

Cell Line	relative viability
NCI-H2342	0.761
NCI-H1623	0.476
NCI-H727	0.346
NCI-H1650	0.19
NCI-H1993	0.858
SW 1573	0.413
NCI-H838	0.339
LCLC-103H	0.997
NCI-H520	0.247
NCI-H2126	0.878
EMC-BAC-2	1.17
NCI-H2085	0.358
NCI-H1666	0.985
NCI-H596	1.11
LK-2	0.215
NCI-H2087	0.164
SK-MES-1	0.743
H3255	0.845
COR-L23	0.524
COR-L 105	0.634
LOU-NH91	0.316
HCC-44	1
NCI-H522	1.03
NCI-H2009	1.05
NCI-H661	0.845
SK-LU-1	0.199
NCI-H2228	0.13
NCI-H1792	0.582
NCI-H2023	0.661
NCI-H1563	0.498

Same assay, conditions: first compound 3.162 µM

Cell Line	relative viability
NCI-H2342	0.719
NCI-H1623	0.594
NCI-H727	0.42
NCI-H1650	0.18
NCI-H1993	0.673
SW 1573	0.149
NCI-H838	0.218
LCLC-103H	0.903
NCI-H520	0.214
NCI-H2126	0.879
EMC-BAC-2	0.972
NCI-H2085	0.339
NCI-H1666	0.81
NCI-H596	0.876
LK-2	0.173
NCI-H2087	0.116
SK-MES-1	0.35
H3255	1.12
COR-L23	0.159
COR-L 105	0.712
LOU-NH91	0.286
HCC-44	0.405
NCI-H522	0.974
NCI-H2009	0.685
NCI-H661	0.805
SK-LU-1	0.204
NCI-H2228	0.119
NCI-H1792	0.553
NCI-H2023	0.272
NCI-H1563	0.538

Each cell line was assayed with C1CSC2=C(C(=O)N1)SC3=C2C=C(C=C3)O [kb NB 142-70] + COc1cc2c(Oc3ccc(NC(=O)C4(C(=O)Nc5ccc(F)cc5)CC4)cc3F)ccnc2cc1OCCCN1CCOCC1 [Foretinib] (partner 0.25 µM) in the same assay as above. Details: first compound 0.1 µM.
How it was run: as §1

Cell Line	relative viability
NCI-H2342	0.96
NCI-H1623	0.932
NCI-H727	1.06
NCI-H1650	1.44
EBC-1	0.0986
NCI-H1703	0.351
NCI-H1993	0.739
SW 1573	0.892
NCI-H838	1.02
LCLC-103H	0.715
NCI-H520	0.718
NCI-H2126	1.18
EMC-BAC-2	0.994
NCI-H2085	0.964
Calu-6	0.809
HCC-366	0.93
NCI-H1666	0.993
NCI-H596	0.887

Cell Line	relative viability
LK-2	1.15
NCI-H2087	1.25
SK-MES-1	0.875
H3255	0.742
COR-L23	1.06
COR-L 105	1.11
IA-LM	1.31
LOU-NH91	0.898
A549	0.997
HCC-78	0.496
NCI-H2009	1.2
NCI-H661	0.996
SK-LU-1	0.782
NCI-H1299	1.08
NCI-H2228	0.956
NCI-H2023	0.859
NCI-H1563	0.95

Same assay, conditions: first compound 1 µM

Cell Line	relative viability
NCI-H2342	1.03
NCI-H1623	0.843
NCI-H727	0.969
NCI-H1650	1.23
EBC-1	0.12
NCI-H1703	0.338
NCI-H1993	0.762
SW 1573	0.797
NCI-H838	1.06
LCLC-103H	0.744
NCI-H520	0.866
NCI-H2126	0.869
EMC-BAC-2	1.01
NCI-H2085	1.06
Calu-6	0.896
HCC-366	0.858
NCI-H1666	1.02
NCI-H596	0.866
LK-2	1.07
NCI-H2087	1.32
SK-MES-1	0.939
H3255	0.946
COR-L23	1.04
COR-L 105	1.03
